From PubChem BioAssay (NCI)
“And” between values parts separate entries of the source, which are not always exact repeats. Equal entries are not always repeated.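 Test compounds were applied to cells in 96-well plates for 48 hours at 5 doses. GI50 marks 50% less growth. TGI marks complete inhibition of growth.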

What was measured:
Assay in all cases: NCI-60 cell line screen, 48 h
CCRF-CEM leukemia = system: CCRF-CEM leukemia
HCT-116 colon = system: HCT-116 colon
SR leukemia = system: SR leukemia
CAKI-1 renal = system: CAKI-1 renal
KM12 colon = system: KM12 colon
MOLT-4 leukemia = system: MOLT-4 leukemia
HT29 colon = system: HT29 colon
SK-MEL-5 melanoma = system: SK-MEL-5 melanoma
OVCAR-3 ovarian = system: OVCAR-3 ovarian
SK-OV-3 ovarian = system: SK-OV-3 ovarian

SMILES | GI50 (CCRF-CEM leukemia) [µM] | TGI (CCRF-CEM leukemia) | GI50 (HCT-116 colon) [µM] | TGI (HCT-116 colon) | GI50 (SR leukemia) [µM] | TGI (SR leukemia) [µM] | GI50 (CAKI-1 renal) [µM] | TGI (CAKI-1 renal) | GI50 (KM12 colon) [µM] | TGI (KM12 colon) | GI50 (MOLT-4 leukemia) [µM] | TGI (MOLT-4 leukemia) | GI50 (HT29 colon) [µM] | TGI (HT29 colon) | GI50 (SK-MEL-5 melanoma) [µM] | TGI (SK-MEL-5 melanoma) | GI50 (OVCAR-3 ovarian) [µM] | TGI (OVCAR-3 ovarian) | GI50 (SK-OV-3 ovarian) [µM] | TGI (SK-OV-3 ovarian)
COC(=O)c1ccc(=O)c2nc3/c(=C/O)c(O)cc(=O)c3[nH]c12 | 0.397 | > 100 µM and 17.2 µM | 0.321 | 14.6 µM and 11.8 µM | 0.361 | > 64.9 | 0.581 | 12.8 µM and 12.6 µM | 1.6 | 20.1 µM and 18.1 µM | 0.562 | 12.1 µM and > 60.8 µM | 1.03 | > 39.8 µM and 28.5 µM | 1.56 | 9.1 µM and 13.5 µM | 1.04 | 25.7 µM and 15 µM | 2.62 | 16.4 µM and 20.8 µM
Cc1cc(O)c2c(c1)C(=O)c1cc(O)cc(O)c1C2=O |  | > 100 µM |  | > 58.9 µM |  | 68 |  | 52.9 µM |  | > 57.5 µM |  | > 100 µM |  | > 100 µM |  | 24.4 µM | 14.7 | 42.2 µM |  | > 91.9 µM
N#CC1C(=N)Cc2ccccc2-c2ccccc21 (stereo unspecified) | 4.42 | > 100 µM | 3.25 | 15.3 µM | 3.31 | 20.7 | 3.21 | 24.2 µM | 3.43 | 16.1 µM | 5 | 43.4 µM | 4.1 | 19.6 µM | 3.35 | 11.1 µM | 3.6 | 13 µM | 4.92 | 41.2 µM
O=C([O-])c1ccc2c(c1)-c1nc-2nc2[n-]c(nc3nc(nc4[n-]c(n1)c1ccc(C(=O)[O-])cc41)-c1cc(C(=O)[O-])ccc1-3)c1ccc(C(=O)[O-])cc21.[Fe+2] | > 22.2 | > 31.3 µM | 13.6 | 34.4 µM | 19 | > 50 | > 50 | > 50 µM | > 50 | > 50 µM | > 50 | > 50 µM | > 50 | > 50 µM | > 50 | > 50 µM | > 50 | > 50 µM | > 50 | > 50 µM
COc1ccc(/C=C(/C(=O)N2CCCC2)c2cc(OC)c(OC)c(OC)c2)cc1N | 3.19 | > 100 µM | 1.08 | > 100 µM | 0.719 | > 100 | 2.35 | > 100 µM | 1.55 | > 100 µM | 4.74 | > 100 µM | 2.3 | > 100 µM | 2.51 | > 100 µM | 0.992 | 6.34 µM | 2.78 | > 100 µM
O=C(Oc1ccc([N+](=O)[O-])cc1)N1CCN(Cc2cccc(Oc3ccccc3)c2)CC1 | 40.5 | > 100 µM | 44.9 | > 100 µM | 22.5 | > 100 | > 73.6 | > 100 µM | 62.5 | > 100 µM | 38.9 | > 100 µM | 40.6 | > 100 µM | 18.5 | 58.7 µM | > 96.2 | > 100 µM | > 100 | > 100 µM
Cc1c(O)c(=O)ccn1C1OC(CO)C(O)C1O (stereo unspecified) |  | > 100 µM |  | > 100 µM |  | > 100 |  | > 100 µM |  | > 100 µM |  | > 100 µM |  | > 100 µM |  | > 100 µM |  | > 100 µM |  | > 100 µM
COc1ccc(-c2cnc(-c3ccc(F)cc3)[nH]2)cc1 | 18.1 | > 89.4 µM | 1.36 | 3.39 µM | 2.41 | 6.27 | 1.82 | 5.57 µM | 1.7 | 3.27 µM | 10.5 | 49.6 µM | 3.19 | > 32.8 µM | 7.81 | 20.7 µM | 1.64 | 3.65 µM | 16.5 | > 66.4 µM
COc1ccc(C2NCCc3c2[nH]c2ccccc32)cc1CN1CCN(c2ccc(F)cc2)CC1 (stereo unspecified) | 2.8 | 7.19 µM | 1.62 | 3 µM | 1.78 | 5.28 | 1.57 | 3.31 µM | 1.86 | 3.33 µM | 1.97 | 5.25 µM | 1.7 | 3.49 µM | 1.63 | 3.01 µM | 2.1 | 4.52 µM | 2.53 | 6.01 µM
